Measured values: US20090170930A1, “METHODS FOR DIRECTING DIFFERENTIATION OF CLONOGENIC NEURAL STEM CELLS WITH COUMARINS” (THE SECOND MILITARY MEDICAL UNIVERSITY, priority 2006, published 2009)

Assays:
[1] = tested on: Rat NSCs; test: NG2 immunocytochemistry cell count: differentiation of NSCs to NG2 positive cells (OPCs); assay type: cell-based; settings: NSC neurospheres, mean±S.D.
Method: (§1) Rat NSCs isolation and culture were performed as described by Weiss et al (Weiss et al., 1996). Briefly, the cortex of 1- to 2-day-old newborn SD rats were removed and placed into sterile chilled Hank's Balanced Salt Solution. After the meninges were carefully removed, tissues were cut into tiny pieces and gently triturated with a Pasteur pipette at least 10-15 times. The suspended tissue was centrifuged at 500 g for 5 min and the pellets were re-suspended in a proliferation medium (DMEM/F12 nutrient (1:1) with additional 2% B27 (Invitrogen Corporation, Carlsbad, Calif.) supplement and 20 ng/mL bFGF (PeproTech, Rocky Hill, N.J.)). The cells were plated at a density of 50 cells/mL in non-coated […] flasks. Every 4 days, bFGF was added along with a partial medium change. After 7 days in vitro, cells formed floating neurospheres. To subculture NSCs, the neurospheres were centrifuged at 600 g for 5 min when the diameters of neurospheres reached a size of approximately 100-200 μm; they were then re-suspended in fresh medium and mechanically dissociated into single cells. Single cells subsequently were seeded into proliferation medium at a density of 10 cells/mL per flask. This procedure produced a second generation of neurospheres, and additional generations of NSCs were produced using this same procedure.
Neurospheres were plated into 12-well plates on poly-D-lysine coated 35 mm dishes at a density of 10-20 spheres per dish in 1.5 mL medium. 1 hour after plating, compounds were added at a final concentration 100 μM unless otherwise indicated. After 5 days, cells were examined with Phase contrast image or immunocytochemistry.
Identification of the different kinds of cells was performed using indirect immunocytochemistry. Cells on dishes were fixed with 4% paraformaldehyde at room temperature for 20 min and washed three times in succession with 0.01 M PBS for 5 min each time. Cells were then treated with 0.3% Triton 100 containing 10% normal goat serum at room temperature for 30 min (Xu et al., 2006). Cells were then incubated with primary antibodies at 4° C. for 12-16 h and washed three times with 0.01 M phosphate buffered saline (PBS) for 5 min each time. FITC-conjugated secondary antibodies were added to the cells, and the cells were incubated at 37° C. for 40 min. After three 5 min PBS washes, Hochest 33258 nuclear stain was added at room temperature for 10 min, followed by two more 5 min PBS rinses. The dishes were examined by a fluorescence microscopy. The primary antibodies included anti-GFAP (1:200; rabbit; Promega), anti-nestin (1:500; Mouse; Chemicon); anti-NG2(1:200; Mouse; Chemicon), anti-MBP (1:50; Mouse; Chemicon), anti-04 (1:100; Mouse; Chemicon), anti-RIP (1:100; Mouse; Chemicon), anti-olig2 (1:100; rabbit; Abcam). The secondary antibodies were FITC-labeled antibodies to rabbit IgG (1:200) and TRITIC-labeled antibodies to mouse IgG (1:200). Immunostained preparations were examined with an IX70 Olympus microscope equipped for phase contrast and epi-fluorescence. Light from a 75 W xenon arc lamp (AH2-RX, Olympus) passed through filter sets (Chroma) to generate excited light for Hochest 33258, FITC and TRITIC stains. All image acquisitions were finished with computer-controlled CCD (Micromax 5 MHz system, Roper Princeton Instruments) and MetaMorph Imaging System version 3.6 (Universal Imaging Corporation). To determine the number of cells expressing a particular antigen, 100 fields per sample were examined and totaled. Observers without knowledge of the treatment condition counted the numbers of positive cells for NG2, compared to total numbers of progeny of NSCs determined by counting Hochest 33258 staining cell nuclei. Results are given as mean±S.D. of data for six samples from three independent experiments. Statistical analyses were carried out using Student's t-test with SPSS software (Version 10.1). […]

[2] = tested on: NSCs; test: Primary compound screen of NSCs, phase contrast morphology; assay type: cell-based, rat; settings: 100 μM, 5 days, phase contrast microscope
Method: as §1, with “procedure. […]” for “procedure.”

O=c1ccc2cc(O)c(O)cc2o1 [Aesculetin] was tested, and the “The ratio of NG2 positive cells of the total cells (%)” value (“The ratio of NG2 positive cells … (%)” for short) ([1]; Dose 1 μM) was 53 ± 2.4 %, the “The ratio of NG2 positive cells … (%)” value ([1]; Dose 10 μM) was 63 ± 2.9 % and the “The ratio of NG2 positive cells … (%)” value ([1]; Dose 100 μM) was 68 ± 2.7 %. For the same molecule, the “The ratio of NG2 positive cells … (%)” value ([1]; Dose 1 mM) was 75 ± 1.6 %.

For COc1cc2cc(Oc3ccc4ccc(=O)oc4c3)c(=O)oc2cc1OC [Isodaphnoretin], the “The ratio of NG2 positive cells … (%)” value ([1]; Dose 1 μM) was 15.6 ± 1.8%, the “The ratio of NG2 positive cells … (%)” value ([1]; Dose 10 μM) was 1% and the “The ratio of NG2 positive cells … (%)” value ([1]; Dose 100 μM) was 1%. The “The ratio of NG2 positive cells … (%)” value ([1]; Dose 1 mM) was 1%.

COc1cc(O)c2c(=O)cc(-c3ccc(O)cc3)oc2c1 [Genkwanin] was tested, and the “The ratio of NG2 positive cells … (%)” value ([1]; Dose 1 μM) was 23 ± 2.3%, the “The ratio of NG2 positive cells … (%)” value ([1]; Dose 10 μM) was 1% and the “The ratio of NG2 positive cells … (%)” value ([1]; Dose 100 μM) was 1%. The “The ratio of NG2 positive cells … (%)” value ([1]; Dose 1 mM) was 1%.

O=c1ccc2ccc(Oc3cc4ccc(O)cc4oc3=O)cc2o1 [Edgeworin] was tested, and the “The ratio of NG2 positive cells … (%)” value ([1]; Dose 1 μM) was 60 ± 2.6 %, the “The ratio of NG2 positive cells … (%)” value ([1]; Dose 10 μM) was 63 ± 2.9 % and the “The ratio of NG2 positive cells … (%)” value ([1]; Dose 100 μM) was 68 ± 3.5 %. The “The ratio of NG2 positive cells … (%)” value ([1]; Dose 1 mM) was 81 ± 3.1 %.

COc1cc2cc(Oc3ccc4ccc(=O)oc4c3)c(=O)oc2cc1O[C@@H]1O[C@H](CO)[C@@H](O)[C@H](O)[C@H]1O [Daphnoretin-7-O-β-D-glucopyranoside] was tested, and the “The ratio of NG2 positive cells … (%)” value ([1]; Dose 1 μM) was 1%, the “The ratio of NG2 positive cells … (%)” value ([1]; Dose 10 μM) was 1% and the “The ratio of NG2 positive cells … (%)” value ([1]; Dose 100 μM) was 1%. For the same molecule, the “The ratio of NG2 positive cells … (%)” value ([1]; Dose 1 mM) was 1%.

O=c1ccc2ccc(O)cc2o1 [7-hydroxycoumarin] was tested, and the “The ratio of NG2 positive cells … (%)” value ([1]; Dose 1 μM) was 68 ± 6.5 %, the “The ratio of NG2 positive cells … (%)” value ([1]; Dose 10 μM) was 76 ± 6.6 % and the “The ratio of NG2 positive cells … (%)” value ([1]; Dose 100 μM) was 89 ± 9.3 %. The “The ratio of NG2 positive cells … (%)” value ([1]; Dose 1 mM) was 92 ± 8.7 %.

In the case of C[C@@H]1O[C@@H](Oc2ccc3ccc(=O)oc3c2-c2c(O)ccc3ccc(=O)oc23)[C@H](O)[C@H](O)[C@H]1O [Edgeworoside C], the “The ratio of NG2 positive cells … (%)” value ([1]; Dose 1 μM) is reported as 1%, the “The ratio of NG2 positive cells … (%)” value ([1]; Dose 10 μM) is reported as 1% and the “The ratio of NG2 positive cells … (%)” value ([1]; Dose 100 μM) is reported as 1%. The “The ratio of NG2 positive cells … (%)” value ([1]; Dose 1 mM) was 1%.

In the case of COc1cc2cc(Oc3ccc4ccc(=O)oc4c3)c(=O)oc2cc1O [Daphnoretin], the “The ratio of NG2 positive cells … (%)” value ([1]; Dose 1 μM) is reported as 65 ± 5.3 %, the “The ratio of NG2 positive cells … (%)” value ([1]; Dose 1 μM, listed as daphnoretin) is reported as 65±5.3% and the “The ratio of NG2 positive cells … (%)” value ([1]; Dose 10 μM) is reported as 87 ± 7.5 %. The “The ratio of NG2 positive cells … (%)” value ([1]; Dose 10 μM, listed as daphnoretin) was 87±7.5%, the “The ratio of NG2 positive cells … (%)” value ([1]; Dose 100 μM) was 92 ± 8.6 % and the “The ratio of NG2 positive cells … (%)” value ([1]; Dose 100 μM, listed as daphnoretin) was 92±8.6%. The “The ratio of NG2 positive cells … (%)” value ([1]; Dose 1 mM) was 95 ± 6.9 %, the “The ratio of NG2 positive cells … (%)” value ([1]; Dose 1 mM, listed as daphnoretin) was 95±6.9% and the “generation of round bipolar or multipolar morphology cells (probably OPCs)” value [2] was “markedly enhance the generation of round bipolar or multipolar morphology cells”.

For COc1cc2ccc(=O)oc2cc1O [Scopoletin], the “The ratio of NG2 positive cells … (%)” value ([1]; Dose 1 μM) was 62 ± 5.6 %, the “The ratio of NG2 positive cells … (%)” value ([1]; Dose 10 μM) was 63 ± 6.3 % and the “The ratio of NG2 positive cells … (%)” value ([1]; Dose 100 μM) was 70 ± 6.9 %. The “The ratio of NG2 positive cells … (%)” value ([1]; Dose 1 mM) was 68 ± 6.7 %.

With COc1ccc2ccc(=O)oc2c1 [7-methoxy coumarin] the “The ratio of NG2 positive cells … (%)” value ([1]; Dose 1 μM) was 16.7 ± 2.2%, the “The ratio of NG2 positive cells … (%)” value ([1]; Dose 10 μM) was 1% and the “The ratio of NG2 positive cells … (%)” value ([1]; Dose 100 μM) was 1%. The “The ratio of NG2 positive cells … (%)” value ([1]; Dose 1 mM) was 1%.

In the case of Isopsoralen, the “The ratio of NG2 positive cells … (%)” value ([1]; Dose 1 μM) is reported as 21 ± 1.6%, the “The ratio of NG2 positive cells … (%)” value ([1]; Dose 10 μM) is reported as 1% and the “The ratio of NG2 positive cells … (%)” value ([1]; Dose 100 μM) is reported as 1%. The “The ratio of NG2 positive cells … (%)” value ([1]; Dose 1 mM) was 1%.

In the case of O=c1ccc2cc(O[C@@H]3O[C@H](CO)[C@@H](O)[C@H](O)[C@H]3O)c(O)cc2o1 [Esculetin-6-β-D-glucopyranoside], the “The ratio of NG2 positive cells … (%)” value ([1]; Dose 1 μM) is reported as 67 ± 4.6 %, the “The ratio of NG2 positive cells … (%)” value ([1]; Dose 10 μM) is reported as 72 ± 3.5 % and the “The ratio of NG2 positive cells … (%)” value ([1]; Dose 100 μM) is reported as 70 ± 3.9 %. For the same molecule, the “The ratio of NG2 positive cells … (%)” value ([1]; Dose 1 mM) was 85 ± 5.2 %.

COc1cc2oc(=O)cc(-c3ccccc3)c2cc1O [Dalbergin] was tested, and the “The ratio of NG2 positive cells … (%)” value ([1]; Dose 1 μM) was 1%, the “The ratio of NG2 positive cells … (%)” value ([1]; Dose 10 μM) was 1% and the “The ratio of NG2 positive cells … (%)” value ([1]; Dose 100 μM) was 1%. For the same molecule, the “The ratio of NG2 positive cells … (%)” value ([1]; Dose 1 mM) was 1%.
